Results taken from US20250130221A1, “METHOD OF IDENTIFYING AGENTS FOR THE TREATMENT OF CYSTIC FIBROSIS CAUSED BY THE MUTATION F508DEL” (FACULDADE DE CIÊNCIAS DA UNIVERSIDADE DE LISBOA, priority 2022, published 2025).
One block for each molecule: values may come before it.

Columns and labels:
GRK1 = target: T1, GRK1 (Bos taurus, UniProt P28327); settings: cited from earlier work
T1 sequence (P28327 1-561): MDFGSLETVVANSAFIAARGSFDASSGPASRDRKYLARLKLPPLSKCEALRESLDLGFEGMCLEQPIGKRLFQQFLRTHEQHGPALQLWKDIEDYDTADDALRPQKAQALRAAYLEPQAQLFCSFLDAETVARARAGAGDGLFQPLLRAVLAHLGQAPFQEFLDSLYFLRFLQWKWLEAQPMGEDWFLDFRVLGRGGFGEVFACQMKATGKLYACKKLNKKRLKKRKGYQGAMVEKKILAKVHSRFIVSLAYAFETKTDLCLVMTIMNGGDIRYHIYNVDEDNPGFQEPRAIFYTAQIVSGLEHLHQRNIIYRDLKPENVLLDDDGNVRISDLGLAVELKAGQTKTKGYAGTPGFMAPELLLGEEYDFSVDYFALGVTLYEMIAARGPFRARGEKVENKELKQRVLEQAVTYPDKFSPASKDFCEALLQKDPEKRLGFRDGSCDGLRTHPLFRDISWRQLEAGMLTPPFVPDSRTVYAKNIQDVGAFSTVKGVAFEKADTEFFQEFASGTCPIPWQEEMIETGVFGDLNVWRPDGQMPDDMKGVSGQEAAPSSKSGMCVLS

PKA = settings: statement in words; cited from earlier work
GRK2 [1] = settings: cited from earlier work
[2] = test system: CFBE cells expressing F508del-CFTR; assay: Cellular toxicity in CFBE cells during dose-response WB assay; format: cell-based, human; settings: concentrations higher than 1 μM
F508del-CFTR [3] = target: T2, F508del-CFTR (Homo sapiens, UniProt P13569, DEL508-508); assay: Halide-sensitive YFP fluorescence quenching in CFBE cells expressing F508del-CFTR; format: cell-based; settings: for additivity to CFTR correctors, HS-YFP quenching rate (F508del-CFTR functional rescue): 1 μM with VX-661 (5 μM), VX-445 (3 μM) or VX-661+VX-445, n=4
T2 construct: expressed in transfected cells; host or cells: CFBE41o- cells constitutively (stably) expressing F508del-CFTR
T2 sequence (P13569 with tags, fused parts or gaps DEL508-508): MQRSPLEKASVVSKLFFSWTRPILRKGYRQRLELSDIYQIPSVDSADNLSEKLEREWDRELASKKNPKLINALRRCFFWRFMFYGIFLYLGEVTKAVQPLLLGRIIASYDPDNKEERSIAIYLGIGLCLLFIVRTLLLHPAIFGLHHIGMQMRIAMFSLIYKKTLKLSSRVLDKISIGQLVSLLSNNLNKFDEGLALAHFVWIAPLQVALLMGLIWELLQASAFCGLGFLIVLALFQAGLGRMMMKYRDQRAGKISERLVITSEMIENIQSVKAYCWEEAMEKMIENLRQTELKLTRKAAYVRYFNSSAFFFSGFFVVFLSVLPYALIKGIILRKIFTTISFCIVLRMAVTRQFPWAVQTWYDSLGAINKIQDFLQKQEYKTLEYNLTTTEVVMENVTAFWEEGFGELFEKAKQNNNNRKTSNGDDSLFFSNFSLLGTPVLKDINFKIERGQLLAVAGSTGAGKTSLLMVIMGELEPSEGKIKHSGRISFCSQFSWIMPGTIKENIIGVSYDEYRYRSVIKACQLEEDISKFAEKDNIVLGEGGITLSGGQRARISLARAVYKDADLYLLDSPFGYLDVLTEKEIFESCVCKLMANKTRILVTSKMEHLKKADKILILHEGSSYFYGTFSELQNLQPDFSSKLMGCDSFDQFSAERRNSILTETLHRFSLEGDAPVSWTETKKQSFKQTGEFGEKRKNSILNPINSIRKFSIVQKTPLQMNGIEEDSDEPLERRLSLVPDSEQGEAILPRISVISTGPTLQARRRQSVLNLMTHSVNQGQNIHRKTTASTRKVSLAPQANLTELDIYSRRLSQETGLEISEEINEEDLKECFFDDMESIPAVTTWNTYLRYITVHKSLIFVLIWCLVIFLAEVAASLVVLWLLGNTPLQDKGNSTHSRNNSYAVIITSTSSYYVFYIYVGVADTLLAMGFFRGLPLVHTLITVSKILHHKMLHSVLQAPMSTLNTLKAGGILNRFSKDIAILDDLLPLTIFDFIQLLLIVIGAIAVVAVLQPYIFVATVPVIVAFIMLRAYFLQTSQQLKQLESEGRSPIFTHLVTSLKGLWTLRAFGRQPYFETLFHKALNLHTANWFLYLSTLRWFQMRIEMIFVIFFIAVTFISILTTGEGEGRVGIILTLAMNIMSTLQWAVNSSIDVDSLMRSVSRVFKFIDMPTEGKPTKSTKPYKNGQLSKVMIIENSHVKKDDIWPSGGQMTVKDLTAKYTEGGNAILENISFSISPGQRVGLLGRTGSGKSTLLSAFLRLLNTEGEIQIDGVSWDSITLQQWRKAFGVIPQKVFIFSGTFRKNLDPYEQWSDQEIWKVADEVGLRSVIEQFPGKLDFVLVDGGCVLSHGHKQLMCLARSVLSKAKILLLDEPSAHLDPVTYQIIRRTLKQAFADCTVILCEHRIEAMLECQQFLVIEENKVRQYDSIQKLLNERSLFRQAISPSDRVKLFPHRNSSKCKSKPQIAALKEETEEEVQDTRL
Experimental: CFBE41o- cells constitutively co-expressing the HS-yellow fluorescent protein (HS-YFP) YFP-H148Q/I152L as well as wt- or F508del-CFTR (described in (Sondo et al., 2011)) were a kind gift from Dr Nicoletta Pedemonte (IRCCS Istituto G. Gaslini, Genoa, Italy). These cells were cultured in Minimum Essential Medium (MEM) supplemented with 10% FBS, 2 mM L-glutamine, puromycin 2 μg/ml and G418 […] (Sigma, #A1720) at 37° C. in 5% CO2.
This assay was used to assess whether the enhanced F508del-CFTR traffic recorded when the reporter cell line was transfected with confirmed hit siRNAs also corresponded to enhanced F508del-CFTR ionic transport function. As in the microscopy-based screens, a 72 h siRNA transfection time was selected. The assay followed a previously reported protocol (Sondo et al., 2011). CFBE cells co-expressing HS-YFP and wt- or F508del-CFTR were grown to confluency (37° C., 5% CO2) and split to 50% confluency. On the following day, the experiment was initiated by seeding cells onto siRNA-coated 96 well plates using a peristaltic pump (ThermoFisher Multidrop™ Combi). Each well was seeded with 10,000 cells. […] After the stimulation period, each plate was transferred to a fluorescence plate reader equipped with fast reagent injectors (Tecan Infinite F200 Pro) and excitation (BP 475-495 nm) and emission ([…]) filters suitable for YFP fluorescence. Each assay consisted of a continuous 16 s fluorescence reading with 2 s before and 14 s after injection of 160 μl of a PBS where Cl^− had been replaced by I^− (final I^− concentration in the well: 100 mM). The pH of all PBS-containing solutions was rigorously set at pH 7.4 immediately before use to avoid artifacts in the fluorescence reading. The resulting kinetics was background subtracted and normalized to the pre-injection fluorescence value. To determine the fluorescence quenching rate associated with I^− influx, the final 14 s of the kinetics in each well were fitted with a single decay exponential curve and the derivative at the injection time (i.e. the quenching rate) was extracted from the curve parameters. […]

F508del-CFTR [4] = target: T2, F508del-CFTR; assay: Western blot of F508del-CFTR processing (bands B and C) in CFBE cells; format: cell-based; settings: for F508del-CFTR band C rescue: CFBE cells stably expressing F508del-CFTR, vs DMSO, n=3; for additivity to CFTR correctors, bands C and B: 1 μM with VX-661 (5 μM), VX-445 (3 μM) or VX-661+VX-445, n=4; for CFTR processing [C/(B+C)]: dose-response 0-1 μM, proportional increase in band B
GRK5 = settings: covalent binding; cited from earlier work
GRK2 [5] = target: T3, GRK2 (Homo sapiens, UniProt P25098); settings: GRK5 over GRK2; cited from earlier work
T3 sequence (P25098 1-689): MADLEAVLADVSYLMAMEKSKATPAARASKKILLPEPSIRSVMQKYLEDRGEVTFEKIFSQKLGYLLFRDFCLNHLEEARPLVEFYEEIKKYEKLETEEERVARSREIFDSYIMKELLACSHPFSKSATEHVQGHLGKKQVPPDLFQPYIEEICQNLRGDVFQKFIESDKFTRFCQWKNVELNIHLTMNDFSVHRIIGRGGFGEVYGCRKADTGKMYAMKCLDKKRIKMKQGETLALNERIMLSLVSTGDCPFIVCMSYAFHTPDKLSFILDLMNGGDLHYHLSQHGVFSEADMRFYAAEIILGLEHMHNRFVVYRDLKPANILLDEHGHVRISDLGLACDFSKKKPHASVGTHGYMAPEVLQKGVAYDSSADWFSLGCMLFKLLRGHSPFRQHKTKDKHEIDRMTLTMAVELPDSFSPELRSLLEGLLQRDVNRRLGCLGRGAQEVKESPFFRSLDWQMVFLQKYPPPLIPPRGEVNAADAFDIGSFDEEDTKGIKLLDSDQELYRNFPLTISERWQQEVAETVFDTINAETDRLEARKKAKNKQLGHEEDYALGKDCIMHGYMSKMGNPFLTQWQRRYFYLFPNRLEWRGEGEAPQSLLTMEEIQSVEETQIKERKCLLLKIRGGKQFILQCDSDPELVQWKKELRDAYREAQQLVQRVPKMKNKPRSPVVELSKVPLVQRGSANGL

[6] = listed as (R,Z)-3-((4-(2-Bromoacetamido)-3,5-dimethyl-1H-pyrrol-2-yl)-methylene)-2-oxo-N-

Structure (SMILES): CC1=C(C(=O)Nc2ccc3[nH]ncc3c2)C(c2ccc(F)c(C(=O)NCc3ccccn3)c2)NC(=O)N1 (stereo not drawn) [CCG215022]
IC50 (GRK1): 3900 ± 1000 nM | effect on GRK1 (GRK1; statement in words): does not affect | effect on PKA (PKA): does not affect | IC50 (GRK2 [1]): 150 ± 70 nM

additivity to CFTR correctors, HS-YFP quenching rate (F508del-CFTR functional rescue) (F508del-CFTR [3]; [6]): additivity in all conditions | F508del-CFTR band C rescue (F508del-CFTR [4]; 0.3 μM): Statistically significant band C rescue | F508del-CFTR band C rescue (F508del-CFTR [4]; 0.3 μM, listed as (R,Z)-3-((4-(2-Bromoacetamido)-3,5-dimethyl-1H-pyrrol-2-yl)-methylene)-2-oxo-N-): statistically significant band C rescue | additivity to CFTR correctors, bands C and B (F508del-CFTR [4]; [6]): additivity | F508del-CFTR band C rescue (F508del-CFTR [4]; 1.0 μM): Statistically significant band C rescue | F508del-CFTR band C rescue (F508del-CFTR [4]; 1.0 μM, listed as (R,Z)-3-((4-(2-Bromoacetamido)-3,5-dimethyl-1H-pyrrol-2-yl)-methylene)-2-oxo-N-): statistically significant band C rescue | band C rescue relative to VX-661 (F508del-CFTR [4]; at 0.3 and 1.0 μM): 50 % of VX-661 | CFTR processing [C/(B+C)] (F508del-CFTR [4]): not significantly changed | CFTR processing [C/(B+C)] (F508del-CFTR [4]; [6]): without improved CFTR processing | additivity of rescue to correctors (summary statement) (F508del-CFTR [4]; low micromolar concentrations, VX-809, VX-445 and VX-661): additive to VX-809, VX-445 and VX-661
Structure (SMILES): Cc1[nH]c(/C=C2\C(=O)Nc3ccc(C(=O)N[C@H](C)c4ccccc4)cc32)c(C)c1NC(=O)CBr [9 g, (R,Z)-3-((4-(2-Bromoacetamido)-3,5-dimethyl-1H-pyrrol-2-yl)-methylene)-2-oxo-N-(1-phenylethyl)indoline-5-carboxamide]
cellular toxicity [2]: cellular toxicity | additivity to CFTR correctors, HS-YFP quenching rate (F508del-CFTR functional rescue) (F508del-CFTR [3]): additive to all corrector treatments regarding F508del-CFTR functional rescue | F508del-CFTR function rescue (F508del-CFTR [3]; low micromolar concentrations): significant F508del-CFTR processing and function rescue | additivity to CFTR correctors, bands C and B (F508del-CFTR [4]): additive to all corrector treatments regarding bands C and B | F508del-CFTR processing rescue (F508del-CFTR [4]; low micromolar concentrations): significant F508del-CFTR processing and function rescue | IC50 (GRK5): 8.6 nM | selectivity against GRK2 (GRK2 [5]): 1400 fold
